According to PubChem BioAssay (NCI):
“And” between values parts separate entries of the source, which are not always exact repeats. Identical values can stand only once.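 Values below derive from 48-hour exposures of cells grown in 96-well plates, with endpoints linearly interpolated between the two concentrations bracketing the appropriate inhibition level. GI50: concentration for 50% inhibition of growth. TGI: concentration producing complete growth inhibition.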

Columns and labels:
Assay in all cases: NCI-60 cell line screen, 48 h
[1] = test system: HL-60(TB) leukemia
[2] = test system: SF-295 CNS
[3] = test system: HOP-92 NSCLC
[4] = test system: CAKI-1 renal
[5] = test system: SR leukemia
[6] = test system: HT29 colon
[7] = test system: LOX IMVI melanoma
[8] = test system: DU-145 prostate
[9] = test system: MDA-MB-231 breast
[10] = test system: T-47D breast

Row | SMILES | TGI [1] [µM] | TGI [2] [µM] | TGI [3] [µM] | TGI [4] [µM] | TGI [5] [µM] | TGI [6] [µM] | TGI [7] | GI50 [1] [nM] | GI50 [8] [µM] | TGI [8] [µM] | GI50 [2] [µM] | GI50 [3] [µM] | GI50 [4] [µM] | GI50 [7] [µM] | GI50 [9] [µM] | TGI [9] [µM] | GI50 [5] [nM] | GI50 [10] [nM] | TGI [10] [µM] | GI50 [6] [µM]
1 | Cc1ccc(C)c(N2C(=O)C(=O)C(c3nc4ccccc4o3)C(=O)C2=O)c1 | 61.3 | > 100 | > 100 | > 100 | > 100 | > 100 |  |  |  |  |  |  |  |  |  |  |  |  |  | 
2 | COc1ccc2nc(C(=O)c3ccccc3)c(C)cc2c1 | > 100 | 9.23 | 67.1 | > 100 | > 100 | 11 | > 100 µM |  |  |  |  |  |  |  |  |  |  |  |  | 
3 | O=C(C(=O)n1ncc(Cl)c(Cl)c1=O)n1ncc(Cl)c(Cl)c1=O | 22.6 | > 100 | 49.9 | 44 |  | 34 | > 100 µM |  |  |  |  |  |  |  |  |  |  |  |  | 
4 | Cc1c(C(=O)O)n(C)c(=O)n(C)c1=O | > 100 | > 100 | > 100 | > 100 |  | > 100 | > 100 µM |  |  |  |  |  |  |  |  |  |  |  |  | 
5 | Cc1cccc(C(=O)O)c1C(=O)c1cccc2ccccc12 |  | > 100 |  | > 100 | > 100 | > 100 | > 100 µM |  |  |  |  |  |  |  |  |  |  |  |  | 
6 | CCOC(=O)c1cc(-c2ccc(-c3cc(C(=O)OCC)c(C#N)c(N)c3C#N)cc2)c(C#N)c(N)c1C#N | > 100 | > 100 |  | > 100 | > 100 | > 100 | > 100 µM |  |  |  |  |  |  |  |  |  |  |  |  | 
7 | N#CC(C(=O)CCCC(=O)Nc1ccc(Cl)cc1Cl)c1ccccc1 (stereo unspecified) | > 100 | > 100 | > 100 | > 100 | > 100 | > 100 | > 100 µM |  |  |  |  |  |  |  |  |  |  |  |  | 
8 | CC(C)c1cc(C(C)C)c(S(=O)(=O)N=[N+]=[N-])c(C(C)C)c1 | > 100 |  | > 100 | > 100 | > 100 | > 100 | > 100 µM |  |  |  |  |  |  |  |  |  |  |  |  | 
9 | CCCCCC(=O)Nc1nc2nc[nH]c2c(=O)[nH]1 | > 100 | > 100 | > 100 | > 100 | > 100 | > 100 |  |  |  |  |  |  |  |  |  |  |  |  |  | 
10 | CC(C)N(Cc1ccc(CN(C(=O)CCl)C(C)C)cc1)C(=O)CCl | 4.96 | 3.88 | 3.56 | 3.39 | 0.838 |  | 1.05 µM | 1950 | 3.23 | 12.4 | 1.81 | 1.83 | 1.77 | 0.29 | 2.1 | 6.42 | 225 |  |  | 
11 | COCCOc1cc(C)cc(/C=C(C)/C=C/C2=C(C)CCCC2(C)C)n1 |  | > 100 | > 100 | > 100 | > 100 | > 100 | > 100 µM |  |  |  |  |  |  |  |  |  |  |  |  | 
12 | O=C(CN(/C=C/C(=O)C(F)(F)F)c1ccc(Cl)cc1)c1ccc(Cl)c(Cl)c1 |  | 17.4 | 14.5 | 12.7 | 6.96 | > 100 | 16.6 µM |  | 16.7 | 33.4 | 4.98 | 3.21 | 3.61 | 4.13 | 7.05 | 20.9 | 2260 | 10300 | 29.9 | 3.96
13 | COc1cc(OC)cc(C2C3=C(COC3=O)Nc3cc(OC)ccc32)c1 (stereo unspecified) | < 0.0186 | 28.2 |  | > 100 |  | > 36.6 | > 44.1 µM | < 10 | < 0.01 | 0.0486 | < 0.01 |  | < 0.01 | < 0.01 | < 0.0128 |  | < 10 | < 10 | > 100 | < 0.01
14 | Cc1ccc(-c2nc(/C=N/Nc3cc(C)nc4ccc(Cl)cc34)c(C)o2)cc1 | 2.97 | 3.31 | 2.98 | 3.19 | 1.39 | 2.5 |  | 1120 | 2.49 | 6.67 | 1.8 | 1.43 | 1.74 |  | 1.81 | 3.48 | 339 | 1800 | 3.72 | 0.664
15 | NC1c2ccccc2Nc2ccccc21 | 16.3 | 17 | 16.1 | 17.4 | 7.24 | 20.4 | 13.2 µM |  |  |  |  |  |  |  |  |  |  |  |  | 
16 | CCOC(=O)/C(=C/c1cccc(Cl)c1)N(CC)CC | > 100 | > 100 | 84.2 | > 100 | > 100 | > 100 | > 100 µM |  |  |  |  |  |  |  |  |  |  |  |  | 
17 | CCCCCC(O)C(O)CCC[C@H](O)[C@H]1CC[C@H]([C@H]2CC[C@H]([C@H](O)CCCCCCCCCCCCC3=C[C@H](C)OC3=O)O2)O1 (stereo partly specified) | 4.28 |  | 61.7 | 36.5 |  | 8.31 | 2.93 µM and 14.4 µM |  |  |  |  |  | 15.3 | 1.76 | 17.6 | 82.9 |  | 2120 | 25.6 | 
18 | O=C(NNc1ccc(Cl)cc1)C1CCC(CNS(=O)(=O)c2ccccc2Cl)CC1 (stereo unspecified) | > 100 | 68.5 | > 100 | 12.6 | 66.4 |  |  | 4250 | 31.6 | > 100 | 4.58 | 17.3 | 2.9 |  | 4.63 | 29 | 10200 |  |  | 
19 | CC1OC(=O)C(O)=C1O (stereo unspecified) |  | > 100 | > 100 | > 100 | > 100 | > 100 | > 100 µM |  |  |  |  |  |  |  |  |  |  |  |  | 
20 | Clc1ccc(-c2c3ccc(=[N+]4CCCCC4)cc-3oc3cc(N4CCCCC4)ccc23)cc1 | 0.471 |  |  |  |  |  |  | 94.2 | 0.0632 | 0.214 |  |  |  |  |  |  |  |  |  | 
21 | COC1CC(O)C(OC(=O)c2ccccc2)C(C)O1 (stereo unspecified) | > 100 | > 100 | > 100 | > 100 | > 100 | > 100 | > 100 µM |  |  |  |  |  |  |  |  |  |  |  |  | 
22 | Cc1ccc(N=C[N-]c2ccc(C)cc2)cc1.Cc1ccc(N=C[N-]c2ccc(C)cc2)cc1.O=C([O-])C(F)(F)F.O=C([O-])C(F)(F)F.[OH3+].[OH3+].[Rh+2].[Rh+2] |  | > 100 |  | > 100 |  | 42.1 | > 100 µM |  |  |  | 86.8 |  | > 100 | 31.1 |  |  |  |  |  | 19.4
23 | Cc1cc(N(CCOS(C)(=O)=O)CCOS(C)(=O)=O)ccc1C(=O)O |  | > 100 | > 100 | > 100 | > 100 | > 100 | > 100 µM |  | > 100 | > 100 | > 100 | 37.1 | 43.7 | 73.5 | > 100 | > 100 | 40700 | > 100000 | > 100 | > 100
